According to patent US20070196886A1 (priority 2004, published 2007):
Read-outs that look alike come from different tables or passages of the source.

How the values were obtained:
[1] = target: T1, RNAP holoenzyme (Escherichia coli, UniProt P0A8T7+P0A8V2); format: biochemical; conditions: FIG. 3F
Protocol: Following 15 min at 37° C., 0.5 μl 1 mg/ml heparin was added, and, following a further 2 min at 37° C., 1 μl of 0.25-5 mM (γ-AmNS)UTP (Molecular Probes) was added, and reaction mixtures were transferred to sub-micro fluorometer cuvettes (Starna Cells). Following 2 min at 37° C., RNA synthesis was initiated by addition of 2.5 μl 10 mM ApA, and fluorescence emission intensity was monitored 5 min at 37° C. [excitation wavelength=360 nm and emission wavelength=500 nm; excitation and emission slit widths=4 nm; QuantaMaster QM1 spectrofluorometer (PTI)]. The quantity of UMP incorporated into RNA was determined from the quantity of (γ-AmNS)UTP consumed, which, in turn, was calculated as follows (Schlageck et al., (1979) J. Biol. Chem. 254, 12074-12077): (γ-AmNS)UTPconsumed=[(γ-AmNS)UTP0](Ft−F0)/(12.4×F0) (1) where (γ-AmNS)UTP0 is the quantity of (γ-AmNS) UTP at time 0, F0 is the fluorescence emission intensity at time 0, and Ft is the fluorescence emission intensity at time t. Data were fit to full-competitive, partial-competitive, full-noncompetitive, partial-noncompetitive, full-uncompetitive, partial-uncompetitive, full-mixed, and partial-mixed models of inhibition as in the preceding section.

[2] = target: T1, RNAP holoenzyme; assay: Electrophoretic mobility shift assays (open-complex formation); format: biochemical; conditions: MccJ25 at 1, 10, or 100 μM; lacUV5 promoter
Protocol: Following 15 min at 37° C., 0.5 μl 1 mg/ml heparin was added (to disrupt non-specific complexes), and, following a further 2 min at 37° C., reaction mixtures were applied to 5% polyacrylamide slab gels (30:1 acrylamide/bisacrylamide; 6×9×0.1 cm) and electrophoresed in 90 mM Tris-borate (pH 8.0) and 0.2 mM EDTA (20 V/cm; 30 min at 37° C.) and analyzed using a fluorescence scanner (Storm 860; Molecular Dynamics)

[3] = tested on: bacterial RNAP; conditions: unpublished data
[4] = tested on: Strain DH5α transformed with pRL663 or a pRL663 derivative

T1 sequence (P0A8V2 whole entry): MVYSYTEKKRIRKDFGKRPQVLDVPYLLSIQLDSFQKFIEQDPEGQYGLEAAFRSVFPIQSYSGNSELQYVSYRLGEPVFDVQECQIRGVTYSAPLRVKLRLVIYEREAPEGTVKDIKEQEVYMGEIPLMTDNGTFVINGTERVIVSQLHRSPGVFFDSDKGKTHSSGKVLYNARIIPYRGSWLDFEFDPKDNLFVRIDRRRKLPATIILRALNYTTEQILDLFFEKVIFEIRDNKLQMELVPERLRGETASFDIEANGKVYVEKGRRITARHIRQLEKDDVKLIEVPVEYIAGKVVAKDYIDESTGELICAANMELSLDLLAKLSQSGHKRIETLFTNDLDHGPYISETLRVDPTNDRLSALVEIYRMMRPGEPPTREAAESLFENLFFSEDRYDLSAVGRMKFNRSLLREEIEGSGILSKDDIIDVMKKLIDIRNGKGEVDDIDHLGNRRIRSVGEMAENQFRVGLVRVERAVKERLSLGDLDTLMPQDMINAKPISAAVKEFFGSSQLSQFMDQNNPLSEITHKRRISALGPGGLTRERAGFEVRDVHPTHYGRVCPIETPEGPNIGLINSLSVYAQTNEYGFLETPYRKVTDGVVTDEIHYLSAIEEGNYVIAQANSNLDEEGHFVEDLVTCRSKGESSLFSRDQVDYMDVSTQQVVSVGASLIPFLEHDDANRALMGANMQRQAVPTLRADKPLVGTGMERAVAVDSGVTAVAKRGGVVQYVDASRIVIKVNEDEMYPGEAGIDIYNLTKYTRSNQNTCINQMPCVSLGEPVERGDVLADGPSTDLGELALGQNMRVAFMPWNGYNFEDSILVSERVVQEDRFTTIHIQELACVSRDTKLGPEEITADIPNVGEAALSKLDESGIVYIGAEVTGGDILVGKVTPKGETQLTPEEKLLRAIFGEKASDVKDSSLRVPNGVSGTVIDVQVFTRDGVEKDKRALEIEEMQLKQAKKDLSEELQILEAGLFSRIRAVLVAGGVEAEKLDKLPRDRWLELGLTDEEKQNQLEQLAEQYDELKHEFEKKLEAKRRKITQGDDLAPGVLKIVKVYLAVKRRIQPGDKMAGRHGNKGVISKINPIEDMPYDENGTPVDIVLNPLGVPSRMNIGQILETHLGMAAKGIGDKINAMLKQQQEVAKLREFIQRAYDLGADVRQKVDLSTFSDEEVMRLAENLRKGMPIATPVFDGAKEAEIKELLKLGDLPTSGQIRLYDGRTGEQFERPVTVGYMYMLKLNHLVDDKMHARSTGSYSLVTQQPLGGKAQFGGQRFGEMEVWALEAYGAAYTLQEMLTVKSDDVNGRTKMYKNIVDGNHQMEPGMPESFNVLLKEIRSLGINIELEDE
T1 sequence (P00579 whole entry, further chain): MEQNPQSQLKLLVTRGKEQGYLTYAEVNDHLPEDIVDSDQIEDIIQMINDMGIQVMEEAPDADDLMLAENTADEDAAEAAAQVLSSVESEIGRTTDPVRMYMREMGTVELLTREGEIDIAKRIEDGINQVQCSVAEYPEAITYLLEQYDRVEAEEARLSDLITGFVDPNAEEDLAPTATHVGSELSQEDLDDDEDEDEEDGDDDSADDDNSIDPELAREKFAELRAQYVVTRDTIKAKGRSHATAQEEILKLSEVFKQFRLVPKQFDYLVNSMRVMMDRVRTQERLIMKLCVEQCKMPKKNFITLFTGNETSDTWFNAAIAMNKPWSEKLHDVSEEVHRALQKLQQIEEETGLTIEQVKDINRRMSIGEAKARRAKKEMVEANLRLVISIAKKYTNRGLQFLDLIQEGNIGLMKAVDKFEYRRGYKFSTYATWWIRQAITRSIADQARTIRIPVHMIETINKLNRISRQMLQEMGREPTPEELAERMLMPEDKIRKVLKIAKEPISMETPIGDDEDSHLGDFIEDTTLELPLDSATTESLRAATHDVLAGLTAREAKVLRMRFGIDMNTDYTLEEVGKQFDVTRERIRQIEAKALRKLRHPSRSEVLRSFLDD
T1 sequence (P0A7Z4 whole entry, further chain): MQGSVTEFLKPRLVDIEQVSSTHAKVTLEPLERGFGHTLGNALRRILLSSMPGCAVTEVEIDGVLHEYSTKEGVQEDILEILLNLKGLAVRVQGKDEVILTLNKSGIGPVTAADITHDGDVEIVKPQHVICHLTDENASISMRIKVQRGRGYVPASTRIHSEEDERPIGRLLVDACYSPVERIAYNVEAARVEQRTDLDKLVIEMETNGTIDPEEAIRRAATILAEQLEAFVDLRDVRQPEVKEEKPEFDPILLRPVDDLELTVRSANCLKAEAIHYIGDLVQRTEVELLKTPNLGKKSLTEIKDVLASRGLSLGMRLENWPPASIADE
T1 sequence (P0A800 whole entry, further chain): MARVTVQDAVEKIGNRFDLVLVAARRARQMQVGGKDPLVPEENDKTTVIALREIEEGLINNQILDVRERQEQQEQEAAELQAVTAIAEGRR
T1 sequence (P0A8T7 whole entry): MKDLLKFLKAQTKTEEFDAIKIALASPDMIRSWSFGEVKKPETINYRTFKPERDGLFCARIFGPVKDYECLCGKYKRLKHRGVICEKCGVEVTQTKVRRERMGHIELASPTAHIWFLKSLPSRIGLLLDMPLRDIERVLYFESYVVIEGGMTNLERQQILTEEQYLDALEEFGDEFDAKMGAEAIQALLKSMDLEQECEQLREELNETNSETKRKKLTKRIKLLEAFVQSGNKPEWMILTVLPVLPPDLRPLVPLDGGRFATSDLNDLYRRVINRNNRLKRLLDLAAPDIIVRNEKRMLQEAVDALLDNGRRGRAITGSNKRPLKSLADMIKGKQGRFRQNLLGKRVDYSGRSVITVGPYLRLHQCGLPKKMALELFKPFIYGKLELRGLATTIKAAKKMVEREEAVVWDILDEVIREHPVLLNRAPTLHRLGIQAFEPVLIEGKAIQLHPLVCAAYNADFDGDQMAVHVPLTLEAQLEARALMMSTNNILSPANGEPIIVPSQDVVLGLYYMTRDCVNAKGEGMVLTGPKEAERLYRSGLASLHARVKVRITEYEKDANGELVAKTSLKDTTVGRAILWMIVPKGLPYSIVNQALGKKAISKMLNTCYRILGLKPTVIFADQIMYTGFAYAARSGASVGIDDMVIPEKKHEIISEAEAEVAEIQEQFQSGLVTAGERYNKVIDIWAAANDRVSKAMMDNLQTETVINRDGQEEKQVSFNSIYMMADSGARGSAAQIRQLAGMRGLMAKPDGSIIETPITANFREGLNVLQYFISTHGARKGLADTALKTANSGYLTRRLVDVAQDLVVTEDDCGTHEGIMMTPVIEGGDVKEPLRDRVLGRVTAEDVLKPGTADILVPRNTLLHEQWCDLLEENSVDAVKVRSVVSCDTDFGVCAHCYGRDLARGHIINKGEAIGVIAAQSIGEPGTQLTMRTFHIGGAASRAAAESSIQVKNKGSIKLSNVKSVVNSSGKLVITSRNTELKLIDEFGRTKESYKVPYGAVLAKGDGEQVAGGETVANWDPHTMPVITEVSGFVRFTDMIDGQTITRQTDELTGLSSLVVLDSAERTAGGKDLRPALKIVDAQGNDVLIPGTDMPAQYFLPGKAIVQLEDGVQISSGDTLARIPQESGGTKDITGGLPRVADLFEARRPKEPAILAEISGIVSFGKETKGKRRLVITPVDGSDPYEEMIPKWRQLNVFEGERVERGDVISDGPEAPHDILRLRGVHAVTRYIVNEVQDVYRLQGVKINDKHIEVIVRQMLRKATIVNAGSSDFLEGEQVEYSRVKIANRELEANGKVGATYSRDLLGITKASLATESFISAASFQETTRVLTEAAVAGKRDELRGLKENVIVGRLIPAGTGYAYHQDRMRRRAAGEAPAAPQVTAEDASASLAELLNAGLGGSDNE

Microcin J25 [MccJ25]
Vmax ([1]; at 1 μM MccJ25): 5.3±2.8 mol/mol template/min
Vmax ([1]; at 10 μM MccJ25): 2.4±2.9 mol/mol template/min
effect on formation of open complex [2]: no effect
cross-resistance with rifampicin [3]: do not exhibit cross-resistance with rifampicin
increase in MBC ([4]; 18 of 22 MccJ25-resistant mutants from random mutagenesis): ≥ 50 fold
increase in MBC ([4]; all 22 MccJ25-resistant mutants from random mutagenesis): ≥ 5 fold
MBC ([4]; no substitution (wild-type β′), 2 h at 37° C.): 0 µg/mL
MBC ([4]; rpoB 543 Ala→Leu, 549 Asp→Tyr, multiple-substitution mutant): 50 µg/mL
MBC ([4]; rpoB 543 Ala→Pro, 546 Glu→Gly, multiple-substitution mutant): 50 µg/mL
MBC ([4]; rpoB 544 Gly→Asp, saturation mutagenesis): 50 µg/mL
MBC ([4]; rpoB 545 Phe→Leu, 546 Glu→Asp, multiple-substitution mutant): 50 µg/mL
MBC ([4]; rpoB 545 Phe→Ser, saturation mutagenesis): 50 µg/mL
MBC ([4]; rpoB 548 Arg→Gln, saturation mutagenesis): 50 µg/mL
MBC ([4]; rpoB 549 Asp→His, saturation mutagenesis): 50 µg/mL
MBC ([4]; rpoC 428 Thr→Asn, saturation mutagenesis): 500 µg/mL
MBC ([4]; rpoC 428 Thr→Ile, saturation mutagenesis): 500 µg/mL
MBC ([4]; rpoC 429 Leu→Gln, saturation mutagenesis): 500 µg/mL
MBC ([4]; rpoC 430 His→Tyr, saturation mutagenesis): 500 µg/mL
MBC ([4]; rpoC 493 Pro→Thr, 498 Pro→Thr, multiple-substitution mutant): 100 µg/mL
MBC ([4]; rpoC 498 Pro→Gln, saturation mutagenesis): 1000 µg/mL
MBC ([4]; rpoC 498 Pro→Leu, saturation mutagenesis): 1000 µg/mL
MBC ([4]; rpoC 503 Ser→Pro, saturation mutagenesis): 500 µg/mL
MBC ([4]; rpoC 503 Ser→Tyr, saturation mutagenesis): 500 µg/mL
MBC ([4]; rpoC 504 Gln→Arg, saturation mutagenesis): 500 µg/mL
MBC ([4]; rpoC 504 Gln→Glu, saturation mutagenesis): 500 µg/mL
MBC ([4]; rpoC 508 Leu→Val, saturation mutagenesis): 50 µg/mL
MBC ([4]; rpoC 680 Asn→Lys, saturation mutagenesis): 500 µg/mL
MBC ([4]; rpoC 684 Asp→Ala, saturation mutagenesis): 1000 µg/mL
MBC ([4]; rpoC 684 Asp→Glu, saturation mutagenesis): 500 µg/mL
MBC ([4]; rpoC 684 Asp→Tyr, saturation mutagenesis): 500 µg/mL
MBC ([4]; rpoC 684 Asp→Val, saturation mutagenesis): 500 µg/mL
MBC ([4]; rpoC 732 Gly→Asp, saturation mutagenesis): 100 µg/mL
MBC ([4]; rpoC 732 Gly→Asp, 733 Ser→Ala, multiple-substitution mutant): 100 µg/mL
MBC ([4]; rpoC 732 Gly→Asp, Gly→Thr, multiple-substitution mutant): 500 µg/mL
MBC ([4]; rpoC 733 Ser→Phe, saturation mutagenesis): 100 µg/mL
MBC ([4]; rpoC 733 Ser→Tyr, saturation mutagenesis): 100 µg/mL
MBC ([4]; rpoC 733 Ser→Val, saturation mutagenesis): 500 µg/mL
MBC ([4]; rpoC 733 Ser→Val, 734 Ala→Gly, multiple-substitution mutant): 100 µg/mL
MBC ([4]; rpoC 735 Ala→Δ, saturation mutagenesis): 1000 µg/mL
MBC ([4]; rpoC 736 Gln→Pro, saturation mutagenesis): 500 µg/mL
MBC ([4]; rpoC 738 Arg→Leu, saturation mutagenesis): 50 µg/mL
MBC ([4]; rpoC 744 Arg→His, saturation mutagenesis): 50 µg/mL
MBC ([4]; rpoC 744 Arg→Pro, saturation mutagenesis): 50 µg/mL
MBC ([4]; rpoC 748 Ala→Pro, saturation mutagenesis): 100 µg/mL
MBC ([4]; rpoC 775 Ser→Cys, saturation mutagenesis): 500 µg/mL
MBC ([4]; rpoC 776 Thr→Ile, saturation mutagenesis): 500 µg/mL
MBC ([4]; rpoC 777 His→Pro, saturation mutagenesis): 500 µg/mL
MBC ([4]; rpoC 777 His→Ser, 778 Gly→Ala, multiple-substitution mutant): 500 µg/mL
MBC ([4]; rpoC 777 His→Tyr, saturation mutagenesis): 1000 µg/mL
MBC ([4]; rpoC 779 Ala→Gly, saturation mutagenesis): 500 µg/mL
MBC ([4]; rpoC 779 Ala→Pro, saturation mutagenesis): 500 µg/mL
MBC ([4]; rpoC 779 Ala→Thr, saturation mutagenesis): 1000 µg/mL
MBC ([4]; rpoC 780 Arg→Cys, saturation mutagenesis): 1000 µg/mL
MBC ([4]; rpoC 782 Gly→Ala, saturation mutagenesis): 1000 µg/mL
MBC ([4]; rpoC 783 Leu→Pro, saturation mutagenesis): 100 µg/mL
MBC ([4]; rpoC 784 Ala→Glu, saturation mutagenesis): 500 µg/mL
MBC ([4]; rpoC 785 Asp→Gly, saturation mutagenesis): 500 µg/mL
MBC ([4]; rpoC 786 Thr→Ala, saturation mutagenesis): 500 µg/mL
MBC ([4]; rpoC 786 Thr→Ile, saturation mutagenesis): 500 µg/mL
MBC ([4]; rpoC 788 Leu→Met, saturation mutagenesis): 1000 µg/mL
MBC ([4]; rpoC 789 Lys→Arg, saturation mutagenesis): 500 µg/mL
MBC ([4]; rpoC 789 Lys→Asn, saturation mutagenesis): 1000 µg/mL
MBC ([4]; rpoC 789 Lys→Gln, saturation mutagenesis): 1000 µg/mL
MBC ([4]; rpoC 790 Thr→Ala, saturation mutagenesis): 1000 µg/mL
MBC ([4]; rpoC 790 Thr→Asn, saturation mutagenesis): 500 µg/mL
MBC ([4]; rpoC 790 Thr→Ile, saturation mutagenesis): 1000 µg/mL
MBC ([4]; rpoC 790 Thr→Ser, saturation mutagenesis): 500 µg/mL
MBC ([4]; rpoC 922 Cys→Tyr, saturation mutagenesis): 500 µg/mL
MBC ([4]; rpoC 926 Pro→Ser, saturation mutagenesis): 500 µg/mL
MBC ([4]; rpoC 927 Gly→Cys, saturation mutagenesis): 1000 µg/mL
MBC ([4]; rpoC 927 Gly→Ser, saturation mutagenesis): 1000 µg/mL
MBC ([4]; rpoC 930 Leu→Met, saturation mutagenesis): 1000 µg/mL
MBC ([4]; rpoC 931 Thr→Ala, saturation mutagenesis): 1000 µg/mL
MBC ([4]; rpoC 931 Thr→Ile, saturation mutagenesis): 1000 µg/mL
MBC ([4]; rpoC 932 Met→Ile, saturation mutagenesis): 1000 µg/mL
MBC ([4]; rpoC 933 Arg→Cys, saturation mutagenesis): 1000 µg/mL
MBC ([4]; rpoC 1136 Gly→Ala, saturation mutagenesis): 500 µg/mL
MBC ([4]; rpoC 1136 Gly→Cys, saturation mutagenesis): 1000 µg/mL
MBC ([4]; rpoC 1137 Gly→Ala, saturation mutagenesis): 500 µg/mL
MBC ([4]; rpoC 1137 Gly→Arg, saturation mutagenesis): 1000 µg/mL
MBC ([4]; rpoC 1240 Val→Glu, saturation mutagenesis): 500 µg/mL
MBC ([4]; rpoC 1241 Tyr→Cys, saturation mutagenesis): 100 µg/mL
MBC ([4]; rpoC 1241 Tyr→His, saturation mutagenesis): 100 µg/mL
MBC ([4]; rpoC 1241 Tyr→Ser, saturation mutagenesis): 100 µg/mL
MBC ([4]; rpoC 1244 Gln→Glu, saturation mutagenesis): 100 µg/mL
MBC ([4]; rpoC 1244 Gln→Leu, saturation mutagenesis): 500 µg/mL
MBC ([4]; rpoC 1244 Gln→Pro, saturation mutagenesis): 100 µg/mL
MBC ([4]; rpoC 1247 Lys→Gln, saturation mutagenesis): 100 µg/mL
MBC ([4]; rpoC 1247 Lys→Glu, saturation mutagenesis): 100 µg/mL
MBC ([4]; rpoC 1248 Ile→Ser, saturation mutagenesis): 100 µg/mL
MBC ([4]; β′ 424 Asn→Ser, random mutagenesis, single mutant constructed using site-directed mutagenesis): 100 µg/mL
MBC ([4]; β′ 428 Thr→Ile, random mutagenesis): 500 µg/mL
MBC ([4]; β′ 430 His→Leu, random mutagenesis): 500 µg/mL
MBC ([4]; β′ 464 Asp→Gly, random mutagenesis): 0 µg/mL
MBC ([4]; β′ 469 His→Arg, random mutagenesis): 0 µg/mL
MBC ([4]; β′ 504 Gln→Arg, random mutagenesis): 500 µg/mL
MBC ([4]; β′ 733 Ser→Phe, random mutagenesis): 500 µg/mL
MBC ([4]; β′ 738 Arg→Leu, random mutagenesis): 0 µg/mL
MBC ([4]; β′ 776 Thr→Ile, random mutagenesis): 500 µg/mL
MBC ([4]; β′ 779 Ala→Thr, random mutagenesis): 1000 µg/mL
MBC ([4]; β′ 780 Arg→Cys, random mutagenesis): 1000 µg/mL
MBC ([4]; β′ 782 Gly→Ala, random mutagenesis): 1000 µg/mL
MBC ([4]; β′ 785 Asp→Gly, random mutagenesis): 500 µg/mL
MBC ([4]; β′ 786 Thr→Ile, random mutagenesis): 500 µg/mL
MBC ([4]; β′ 789 Lys→Arg, random mutagenesis): 500 µg/mL
MBC ([4]; β′ 789 Lys→Gln, random mutagenesis): 1000 µg/mL
MBC ([4]; β′ 869 Cys→Arg, random mutagenesis): 1000 µg/mL
MBC ([4]; β′ 933 Arg→Cys, random mutagenesis): 1000 µg/mL
MBC ([4]; β′ 1244 Gln→Leu, random mutagenesis): 500 µg/mL
